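Here, GI50 denotes the concentration required for 50% inhibition of growth. Definition used: TGI = concentration required for complete inhibition of growth.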
What was measured:
Test in all cases: DTP human tumour cell line panel, 384-well format
M14 melanoma = tested on: M14 melanoma
ACHN renal = tested on: ACHN renal
OVCAR-5 ovarian = tested on: OVCAR-5 ovarian
NCI-H322M lung = tested on: NCI-H322M lung
KM12 colon = tested on: KM12 colon
MDA-MB-231 breast = tested on: MDA-MB-231 breast
BT-549 breast = tested on: BT-549 breast
MOLT-4 leukemia = tested on: MOLT-4 leukemia
OVCAR-3 ovarian = tested on: OVCAR-3 ovarian
HOP-92 NSCLC = tested on: HOP-92 NSCLC
RXF 393 renal = tested on: RXF 393 renal
HCT-15 colon = tested on: HCT-15 colon
T-47D breast = tested on: T-47D breast
U251 glioblastoma = tested on: U251 glioblastoma
NCI-H226 lung = tested on: NCI-H226 lung
MDA-MB-435 melanoma = tested on: MDA-MB-435 melanoma
CAKI-1 renal = tested on: CAKI-1 renal
IGROV1 ovarian = tested on: IGROV1 ovarian
TK-10 renal = tested on: TK-10 renal
HS 578T breast = tested on: HS 578T breast
A498 renal = tested on: A498 renal
PC-3 prostate = tested on: PC-3 prostate
HL-60(TB) leukemia = tested on: HL-60(TB) leukemia
SNB-19 CNS = tested on: SNB-19 CNS
RPMI-8226 leukemia = tested on: RPMI-8226 leukemia
SN12C renal = tested on: SN12C renal
NCI-H23 lung = tested on: NCI-H23 lung
NCI-H522 lung = tested on: NCI-H522 lung
MDA-MB-468 breast = tested on: MDA-MB-468 breast
HCC-2998 colon = tested on: HCC-2998 colon
MCF7 breast = tested on: MCF7 breast
CCRF-CEM leukemia = tested on: CCRF-CEM leukemia
OVCAR-4 ovarian = tested on: OVCAR-4 ovarian
HOP-62 NSCLC = tested on: HOP-62 NSCLC
OVCAR-8 ovarian = tested on: OVCAR-8 ovarian
NCI/ADR-RES ovarian = tested on: NCI/ADR-RES ovarian
COLO 205 colon = tested on: COLO 205 colon
DU-145 prostate = tested on: DU-145 prostate
SK-MEL-28 melanoma = tested on: SK-MEL-28 melanoma
SW-620 colon = tested on: SW-620 colon
UACC-62 melanoma = tested on: UACC-62 melanoma
SF-268 CNS = tested on: SF-268 CNS
SK-MEL-5 melanoma = tested on: SK-MEL-5 melanoma
UACC-257 melanoma = tested on: UACC-257 melanoma
SNB-75 CNS = tested on: SNB-75 CNS
HT29 colon = tested on: HT29 colon
NCI-H460 NSCLC = tested on: NCI-H460 NSCLC
EKVX NSCLC = tested on: EKVX NSCLC
SR leukemia = tested on: SR leukemia
SK-MEL-2 melanoma = tested on: SK-MEL-2 melanoma
MALME-3M melanoma = tested on: MALME-3M melanoma
SK-OV-3 ovarian = tested on: SK-OV-3 ovarian
SF-539 CNS = tested on: SF-539 CNS

## COc1ccc(N(C)c2nc(C)nc3ccccc23)cc1
M14 melanoma
  GI50: < 10 nM
  TGI: < 10 nM
ACHN renal
  GI50: < 10 nM
  TGI: 11400 nM
OVCAR-5 ovarian
  GI50: < 10 nM
  TGI: > 100000 nM
NCI-H322M lung
  GI50: < 10 nM
  TGI: > 100000 nM
KM12 colon
  GI50: < 10 nM
  TGI: 38400 nM
MDA-MB-231 breast
  GI50: < 10 nM
  TGI: 23900 nM
BT-549 breast
  GI50: < 10 nM
  TGI: < 10 nM
MOLT-4 leukemia
  GI50: < 10 nM
  TGI: < 10 nM
OVCAR-3 ovarian
  GI50: < 10 nM
  TGI: < 10 nM
HOP-92 NSCLC
  GI50: < 10 nM
  TGI: 13.1 nM
RXF 393 renal
  GI50: < 10 nM
  TGI: < 10 nM
HCT-15 colon
  GI50: < 10 nM
  TGI: < 10 nM
T-47D breast
  GI50: < 10 nM
  TGI: 55700 nM
U251 glioblastoma
  GI50: < 10 nM
  TGI: < 10 nM
NCI-H226 lung
  GI50: < 10 nM
  TGI: < 10 nM
MDA-MB-435 melanoma
  GI50: < 10 nM
  TGI: < 10 nM
CAKI-1 renal
  GI50: < 10 nM
  TGI: 288 nM
IGROV1 ovarian
  GI50: < 10 nM
  TGI: > 100000 nM
TK-10 renal
  GI50: < 10 nM
  TGI: 90300 nM
HS 578T breast
  GI50: < 10 nM
  TGI: < 10 nM
A498 renal
  GI50: < 10 nM
  TGI: 35400 nM
PC-3 prostate
  GI50: < 10 nM
  TGI: < 10 nM
HL-60(TB) leukemia
  GI50: < 10 nM
  TGI: < 10 nM
SNB-19 CNS
  GI50: < 10 nM
  TGI: < 10 nM
RPMI-8226 leukemia
  GI50: < 10 nM
  TGI: < 10 nM
SN12C renal
  GI50: < 10 nM
  TGI: 46000 nM
NCI-H23 lung
  GI50: < 10 nM
  TGI: < 10 nM
NCI-H522 lung
  GI50: < 10 nM
  TGI: < 10 nM
MDA-MB-468 breast
  GI50: < 10 nM
  TGI: < 10 nM
HCC-2998 colon
  GI50: < 10 nM
  TGI: < 10 nM
MCF7 breast
  GI50: < 10 nM
  TGI: 184 nM
CCRF-CEM leukemia
  GI50: < 10 nM
  TGI: < 10 nM
OVCAR-4 ovarian
  GI50: < 10 nM
  TGI: 2080 nM
HOP-62 NSCLC
  GI50: < 10 nM
  TGI: 5640 nM
OVCAR-8 ovarian
  GI50: < 10 nM
  TGI: < 10 nM
NCI/ADR-RES ovarian
  GI50: < 10 nM
  TGI: < 10 nM
COLO 205 colon
  GI50: < 10 nM
  TGI: < 10 nM
DU-145 prostate
  GI50: < 10 nM
  TGI: 32.8 nM
SK-MEL-28 melanoma
  GI50: < 10 nM
  TGI: < 10 nM
SW-620 colon
  GI50: < 10 nM
  TGI: > 100000 nM
UACC-62 melanoma
  GI50: < 10 nM
  TGI: < 10 nM
SF-268 CNS
  GI50: < 10 nM
  TGI: < 10 nM
SK-MEL-5 melanoma
  GI50: < 10 nM
  TGI: < 10 nM
UACC-257 melanoma
  GI50: < 10 nM
  TGI: 75500 nM
SNB-75 CNS
  GI50: < 10 nM
  TGI: < 10 nM
HT29 colon
  GI50: < 10 nM
  TGI: 13000 nM
NCI-H460 NSCLC
  GI50: < 10 nM
  TGI: < 10 nM
EKVX NSCLC
  GI50: < 10 nM
  TGI: 25100 nM
SR leukemia
  GI50: < 10 nM
  TGI: < 10 nM
SK-MEL-2 melanoma
  GI50: < 10 nM
  TGI: < 10 nM
MALME-3M melanoma
  GI50: < 10 nM
  TGI: < 10 nM
SK-OV-3 ovarian
  GI50: < 10 nM
  TGI: < 10 nM
SF-539 CNS
  GI50: < 10 nM
  TGI: < 10 nM
